Legend:
[1] = test system: murine embryonic stem cells; assay: LDH release cytotoxicity test in stem cells; conditions: 3 mg ELIP/30 μl gas/ml for 4 hours; H2O2 10 mM for 2 hours
[2] = biological target: tPA activity on porcine blood clot (Homo sapiens, UniProt P00750); assay: Thrombolytic efficiency of tPA on porcine blood clot in presence of Xe-ELIP or free Xe; conditions: 30 minute incorporation with tPA
Protocol: Neuroprotective combination therapy may minimize the harmful effects of ischemic neuronal damage. […] The thrombolytic effect of tPA was inhibited after 30 minute incorporation with free Xe (Xe saturated solution).

tPA activity on porcine blood clot, sequence (P00750 36-562): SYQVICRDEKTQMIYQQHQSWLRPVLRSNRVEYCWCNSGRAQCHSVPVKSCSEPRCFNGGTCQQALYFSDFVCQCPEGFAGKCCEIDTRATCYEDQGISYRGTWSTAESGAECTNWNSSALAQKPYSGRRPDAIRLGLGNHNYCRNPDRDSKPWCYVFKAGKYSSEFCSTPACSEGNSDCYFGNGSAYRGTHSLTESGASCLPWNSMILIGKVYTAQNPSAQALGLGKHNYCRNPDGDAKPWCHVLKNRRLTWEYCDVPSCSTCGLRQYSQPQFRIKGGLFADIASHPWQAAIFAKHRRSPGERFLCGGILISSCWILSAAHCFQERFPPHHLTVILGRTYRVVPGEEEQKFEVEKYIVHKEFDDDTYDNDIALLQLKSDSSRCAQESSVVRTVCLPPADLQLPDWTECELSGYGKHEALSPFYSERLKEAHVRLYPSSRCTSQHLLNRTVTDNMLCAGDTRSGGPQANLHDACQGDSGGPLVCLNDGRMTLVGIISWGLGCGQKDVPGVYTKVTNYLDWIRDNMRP

| thrombolytic effect of tPA [2] | SMILES | LDH release (cytotoxicity) [1] |
| --- | --- | --- |
| – | OO [H2O2, Hydrogen Peroxide] | significant LDH release |
| inhibited | [Xe] [free Xe] | – |

Reference: US11872312B2, “Neuroprotective liposome compositions and methods for treatment of stroke” (The Board of Regents of The University of Texas System, priority 2012, dated 2024)
